Values joined by “and” are separate entries in the source; they are usually repeats but may differ in a detail not shown here. Equal values may be shown once.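 Results reflect a 48-hour exposure of cells in 96-well plates to compound at five concentrations. Here, GI50 denotes the concentration required for 50% inhibition of growth. TGI: total growth inhibition.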
Columns and labels:
Test in all cases: growth of human tumour cells (NCI), 48 h
MCF7 breast = system: MCF7 breast
NCI/ADR-RES ovarian = system: NCI/ADR-RES ovarian
SF-539 CNS = system: SF-539 CNS
SK-MEL-2 melanoma = system: SK-MEL-2 melanoma
RPMI-8226 leukemia = system: RPMI-8226 leukemia
OVCAR-8 ovarian = system: OVCAR-8 ovarian
A549 NSCLC = system: A549 NSCLC
SF-295 CNS = system: SF-295 CNS
SR leukemia = system: SR leukemia
SNB-75 CNS = system: SNB-75 CNS

## Cn1cc(C2=C(c3c4n(c5ccccc35)CCNC4)C(=O)NC2=O)c2ccccc21
MCF7 breast
  GI50: 4.78 µM
  TGI: > 23.8 µM
NCI/ADR-RES ovarian
  GI50: 12.7 µM
  TGI: > 25 µM
SF-539 CNS
  GI50: 5.72 µM
  TGI: 14.3 µM
SK-MEL-2 melanoma
  GI50: 8.03 µM
  TGI: > 21.3 µM
RPMI-8226 leukemia
  GI50: 10.1 µM
  TGI: > 22.3 µM
OVCAR-8 ovarian
  GI50: > 16.9 µM
  TGI: > 25 µM
A549 NSCLC
  GI50: 11.8 µM
  TGI: > 25 µM
SF-295 CNS
  GI50: 5.69 µM
  TGI: > 25 µM
SR leukemia
  GI50: 3.73 µM
  TGI: > 25 µM
SNB-75 CNS
  GI50: 1.04 µM
  TGI: 12 µM

## CC(c1cc(Cl)ccc1O)c1cc(Cl)ccc1O
MCF7 breast
  GI50: 3.19 µM
  TGI: 16.5 µM
NCI/ADR-RES ovarian
  GI50: 3.15 µM
  TGI: 9.16 µM
SF-539 CNS
  GI50: 3.52 µM
  TGI: 12.9 µM
SK-MEL-2 melanoma
  GI50: 2.98 µM
  TGI: 7.23 µM
RPMI-8226 leukemia
  GI50: 3.73 µM
  TGI: 9.89 µM
OVCAR-8 ovarian
  GI50: 4.04 µM
  TGI: 19.9 µM
A549 NSCLC
  GI50: 4.15 µM
  TGI: 18.9 µM
SF-295 CNS
  GI50: 2.3 µM
  TGI: 7.83 µM
SR leukemia
  GI50: 2.59 µM
  TGI: 9.95 µM
SNB-75 CNS
  GI50: 2.49 µM
  TGI: 11.9 µM

## O=[N+]([O-])c1ccc(/C=C/c2nc3ccc(Cl)cc3[nH]2)cc1
MCF7 breast
  GI50: 21.5 µM
  TGI: > 100 µM
NCI/ADR-RES ovarian
  GI50: 15 µM
  TGI: > 100 µM
SF-539 CNS
  GI50: 15.9 µM
  TGI: 39.4 µM
SK-MEL-2 melanoma
  GI50: > 100 µM
  TGI: > 100 µM
RPMI-8226 leukemia
  GI50: 31.4 µM
  TGI: > 100 µM
OVCAR-8 ovarian
  GI50: 24.5 µM
  TGI: 63.6 µM
A549 NSCLC
  GI50: 37.8 µM
  TGI: > 100 µM
SF-295 CNS
  GI50: 39.9 µM
  TGI: > 100 µM
SR leukemia
  GI50: 4.95 µM
  TGI: > 100 µM
SNB-75 CNS
  GI50: 76.9 µM
  TGI: > 100 µM

## O=C(/C=C/C12c3ccccc3C(c3ccccc31)C1C(=O)N(c3ccc(Cl)cc3)C(=O)C12)c1ccccn1 (centres undefined)
MCF7 breast
  GI50: 0.313 µM
  TGI: > 23 µM
NCI/ADR-RES ovarian
  GI50: 0.332 µM
  TGI: > 100 µM
SF-539 CNS
  GI50: 0.258 µM
  TGI: 0.676 µM
SK-MEL-2 melanoma
  GI50: 0.529 µM
  TGI: 2.74 µM
RPMI-8226 leukemia
  GI50: 0.234 µM
  TGI: 0.682 µM
OVCAR-8 ovarian
  GI50: 0.328 µM
  TGI: > 100 µM
A549 NSCLC
  GI50: 0.288 µM
  TGI: 0.989 µM
SF-295 CNS
  GI50: 0.379 µM
  TGI: 2.03 µM
SR leukemia
  GI50: 0.241 µM
  TGI: > 100 µM
SNB-75 CNS
  GI50: 0.256 µM
  TGI: 1.05 µM

## Cc1ccc(F)c(NC(=O)Nc2ccc(-c3cccc4[nH]nc(N)c34)cc2)c1
MCF7 breast
  GI50: 2.29 µM and 2.07 µM
  TGI: 8.4 µM and > 10 µM
NCI/ADR-RES ovarian
  GI50: 3.4 µM and 3.81 µM
  TGI: 18.6 µM and > 10 µM
SF-539 CNS
  GI50: 1.61 µM and 1.52 µM
  TGI: 6.67 µM and > 10 µM
SK-MEL-2 melanoma
  GI50: 2.67 µM and 2.87 µM
  TGI: 5.89 µM and 9.2 µM
RPMI-8226 leukemia
  GI50: 2.27 µM and 2.39 µM
  TGI: 6.11 µM and 6.27 µM
OVCAR-8 ovarian
  GI50: 3.25 µM and 3.08 µM
  TGI: 18 µM and > 10 µM
A549 NSCLC
  GI50: 2.31 µM and 2.12 µM
  TGI: 5.97 µM and 4.95 µM
SF-295 CNS
  GI50: 2.55 µM and 3.48 µM
  TGI: 12.3 µM and > 10 µM
SR leukemia
  GI50: 2.62 µM and 1.87 µM
  TGI: 8.37 µM and 5.45 µM
SNB-75 CNS
  GI50: 4.72 µM and 3.54 µM
  TGI: 15.3 µM and > 10 µM

## O=C(O)CCCCn1ccc(=O)[nH]c1=O
MCF7 breast
  TGI: > 100 µM
NCI/ADR-RES ovarian
  TGI: > 100 µM
SF-539 CNS
  TGI: > 100 µM
SK-MEL-2 melanoma
  TGI: > 100 µM
RPMI-8226 leukemia
  TGI: > 100 µM
OVCAR-8 ovarian
  TGI: > 100 µM
A549 NSCLC
  TGI: > 100 µM
SF-295 CNS
  TGI: > 100 µM
SR leukemia
  TGI: > 100 µM
SNB-75 CNS
  TGI: > 100 µM

## COC(=O)c1ccc2nc(-c3cc4ccccc4n3C)n(CCCCOc3cc4c(cc3OC)C(=O)N3CCC[C@H]3C=N4)c2c1
MCF7 breast
  GI50: 0.292 µM
  TGI: 1.41 µM
NCI/ADR-RES ovarian
  GI50: 3.02 µM
  TGI: 9.8 µM
SF-539 CNS
  GI50: 0.881 µM
  TGI: 2.43 µM
SK-MEL-2 melanoma
  TGI: 0.631 µM
RPMI-8226 leukemia
  GI50: 0.345 µM
  TGI: > 100 µM
OVCAR-8 ovarian
  GI50: 0.8 µM
  TGI: 7.25 µM
A549 NSCLC
  GI50: 1.5 µM
  TGI: 10.3 µM
SF-295 CNS
  GI50: 0.667 µM
  TGI: 4.85 µM
SR leukemia
  GI50: 0.643 µM
  TGI: > 100 µM
SNB-75 CNS
  GI50: 0.339 µM
  TGI: 1.35 µM

— PubChem BioAssay (NCI)
